Results taken from article PMC11240139, “Exploring the antitumor potential of novel quinoline derivatives via tubulin polymerization inhibition in breast cancer; design, synthesis and molecular docking” (RSC Advances, 2024).

Assays:
tubulin = biological target: T1, tubulin (Sus scrofa, UniProt P02550+P02554); experiment: Tubulin polymerization inhibition assay; assay type: biochemical
T1 construct: purchased Cytoskeleton, USA
Method: Tubulin polymerization inhibition assay was performed using Tubulin Polymerization Assay Kit (Cytoskeleton, USA). 2 mg mL^−1 tubulin was dissolved in 80 mM PIPES pH 6.9, 2.0 mM MgCl2, 0.5 mM EGTA, 1.0 mM GTP and 15% glycerol. A 96-well plate was warmed to 37 °C for 10 minutes. Serial dilutions of the test compounds were prepared. The assay components were mixed. Polymerization was monitored using a plate reader at 360 nm and emission at 420 nm at 37 °C every 1 min intervals for 60 min. A dose–response curve was generated and the IC50 for tubulin polymerization inhibition was calculated.

MDA-MB-231 cells = experiment: Cell apoptosis analysis (annexin V-FITC/PI); assay type: cell-based; conditions: MDA-MB-231, IC50 dose, 24 h
Method: Annexin-V-FITC Apoptosis Detection Kit (Biovision, USA) was used to determine apoptotic cells according to manufacturer's instructions. Briefly, MDA-MB 231 cells (2 × 10^5 cells) were seeded in 6-well plates and cultured for 24 h. […] Cells were collected, washed with PBS and centrifuged. The cells were re-suspended in 500 μL of 1× binding buffer. 5 μL of annexin V-FITC and 5 μL of propidium iodide (PI […]) were added and the cells were incubated in the dark at room temperature for 5 min. The fluorescence of the stained cells was analyzed by flow cytometry using FACSCalibur (BD Biosciences, Mountain View, CA). The data were analyzed using the CellQuest software (BD Biosciences).[53,54]

T1 sequence (P02554 whole entry): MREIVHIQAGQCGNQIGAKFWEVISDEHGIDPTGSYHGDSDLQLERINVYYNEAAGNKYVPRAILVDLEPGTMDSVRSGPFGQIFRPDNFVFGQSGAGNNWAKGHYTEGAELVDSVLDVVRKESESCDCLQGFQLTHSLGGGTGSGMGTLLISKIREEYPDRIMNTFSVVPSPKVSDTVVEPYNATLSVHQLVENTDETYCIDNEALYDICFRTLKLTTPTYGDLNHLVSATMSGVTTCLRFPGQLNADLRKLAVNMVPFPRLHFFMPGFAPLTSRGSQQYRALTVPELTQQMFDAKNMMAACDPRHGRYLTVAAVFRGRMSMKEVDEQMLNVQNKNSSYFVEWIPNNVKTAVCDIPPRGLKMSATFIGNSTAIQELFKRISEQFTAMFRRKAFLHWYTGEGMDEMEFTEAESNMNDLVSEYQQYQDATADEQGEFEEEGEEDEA
T1 sequence (P02550 whole entry): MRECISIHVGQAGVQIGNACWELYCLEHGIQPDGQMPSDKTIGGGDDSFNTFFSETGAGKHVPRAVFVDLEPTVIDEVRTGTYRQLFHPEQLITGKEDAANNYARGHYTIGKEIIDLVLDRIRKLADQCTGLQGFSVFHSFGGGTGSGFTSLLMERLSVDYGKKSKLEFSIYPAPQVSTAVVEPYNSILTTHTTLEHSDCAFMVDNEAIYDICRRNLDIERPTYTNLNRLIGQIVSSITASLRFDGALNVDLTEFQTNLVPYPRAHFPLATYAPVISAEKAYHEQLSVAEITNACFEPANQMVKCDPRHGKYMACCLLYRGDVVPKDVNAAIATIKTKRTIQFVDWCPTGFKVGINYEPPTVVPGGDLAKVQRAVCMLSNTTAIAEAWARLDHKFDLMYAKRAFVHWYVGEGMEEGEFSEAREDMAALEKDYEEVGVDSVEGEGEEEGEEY

Structure (SMILES): CCc1cccc2cc(-c3cc(-c4cc(OC)c(OC)c(OC)c4)[nH]c(=O)c3C#N)c(Cl)nc12 [Compound 4c, 4-(2-Chloro-8-ethylquinolin-3-yl)-2-oxo-6-(3,4,5-trimethoxyphenyl)-1,2-dihydropyridine-3-carbonitrile]
- IC50 (tubulin): 17 ± 0.3 µM
- Early Apoptosis (%) (MDA-MB-231 cells): 7.44 ± 1.59%
- Late Apoptosis (%) (MDA-MB-231 cells): 17.1 ± 1.9%
- Necrosis (%) (MDA-MB-231 cells): 4.61 + 2%
